{"source": "patent US20230346827A1", "about": "(priority 2020, published 2023)", "tested_on": "CD19+ B cells and PBMC + (α-IgM and TCR ligands)", "test": "BioMAP BT system", "format": "cell-based, human", "conditions": "annotated relative to vehicle controls", "text": "Cell types and stimuli used in each system are as follows: 3C system [HUVEC + (IL-1β, TNFα and IFNy)], 4H system [HUVEC + (IL-4 and histamine)], LPS system [PBMC and HUVEC + LPS (TLR4 ligand)], SAg system [PBMC and HUVEC + TCR ligands], BT system [CD19+ B cells and PBMC + (α-IgM and TCR ligands)], BF4T system [bronchial epithelial cells and HDFn + (TNFα and IL-4)], BE3C system [bronchial epithelial cells + (IL-1β, TNFα and IFNy)], CASM3C system [coronary artery smooth muscle cells + (IL-1 β, TNFα and IFNy)], HDF3CGF system [HDFn + (IL-1β, TNFα, IFNy, EGF, bFGF and PDGF-BB)], KF3CT system [keratinocytes and HDFn + (IL-1β, TNFα, IFNy and TGFβ)], MyoF system [differentiated lung myofibroblasts + (TNFα and TGFβ)] and Mphg system [HUVEC and M1 macrophages + Zymosan (TLR2 ligand)].\nSystems are derived from either single cell types or co-culture systems. Adherent cell types are cultured in 96 or 384-well plates until confluence, followed by the addition of PBMC (SAg and LPS systems). […] Soluble factors from supernatants are quantified using either HTRF® detection, bead-based multiplex immunoassay or capture ELISA. Overt adverse effects of test agents on cell proliferation and viability (cytotoxicity) are detected by sulforhodamine B (SRB) staining, for adherent cells, and alamarBlue® reduction for cells in suspension. […]", "data": [{"substance": "sodium salt of dextran sulfate [LMW-DS]", "values": [{"measurement": "Decreased biomarker activity", "value": "sIgG, sIL-17F"}, {"measurement": "Increased biomarker activity", "value": "sIL-17A"}]}]}
